Patent US20050171012A1, “Preventives/remedies for bone/joint diseases” (TAKEDA CHEMICAL INDUSTRIES, LTD., priority 2001, published 2005)
Each block holds one compound with its values, some of them ahead of it.

Legend:
[1] = target: human DIO1 (type 1 thyroid hormone deiodinase) (Homo sapiens, UniProt P49895); settings: 1 mM PTU, T4 concentration 5 μM, 37° C. one hour; FIG. 4b
Text: (§1) Using human thyroid-derived cDNA (Marathon Ready cDNA; Clontech) as a template, the following sequences were amplified by PCR: the amino acid coding sequence (cds) of human DIO1 (type 1 thyroid hormone deiodinase) using primer 1 (SEQ ID NO: 17) and primer 2 (SEQ ID NO: 18); DIO1 selenocystein insertion sequence (SECIS) using primer 3 (SEQ ID NO: 19) and primer 4 (SEQ ID NO: 20); human DIO2 cds using primer 5 (SEQ ID NO: 21) and primer 6 (SEQ ID NO: 22); and DIO2 SECIS (Buettner et al., 1998) using primer 7 (SEQ ID NO: 23) and primer 8 (SEQ ID NO: 24).
(§2) The resultant DNAs for human DIO1 cds and human DIO2 cds were inserted into pcDNA3.1 (Invitrogen) individually to thereby obtain plasmids pTB2240 and pTB2242. Further, the resultant DNAs for human DIO1 SECIS and human DIO2 SECIS were inserted into pCR2.1 (Invitrogen) individually to thereby obtain plasmids pTB2241 and pTB2244. DIO1 SECIS and DIO2 SECIS were cut out with restriction enzymes Sca I and Not I (Takara Shuzo) and introduced into DIO1 or DIO2 coding sequence-inserted plasmid pretreated with restriction enzymes Eco RV and Not I (Takara Shuzo) to thereby construct DIO1 expression plasmid pTB2248 and DIO2 expression plasmid pTB2249.
(§3) COS-7 cells (3×10^5) were plated in 6 cm petri dishes. […]

[2] = target: T1, human DIO2 (Homo sapiens, UniProt Q92813); experiment: Thyroid hormone deiodinase activity (T3 production from T4, T3 RIA) in disrupted COS-7 cells with DIO2 expression plasmid pTB2249; type: biochemical; settings: FIG. 4c
T1 construct: expressed in transfected cells; host or cells: COS-7 cells, transiently transfected with pTB2249 (pcDNA3.1 backbone), sonicated to disrupted cells
T1 sequence (Q92813 1-273): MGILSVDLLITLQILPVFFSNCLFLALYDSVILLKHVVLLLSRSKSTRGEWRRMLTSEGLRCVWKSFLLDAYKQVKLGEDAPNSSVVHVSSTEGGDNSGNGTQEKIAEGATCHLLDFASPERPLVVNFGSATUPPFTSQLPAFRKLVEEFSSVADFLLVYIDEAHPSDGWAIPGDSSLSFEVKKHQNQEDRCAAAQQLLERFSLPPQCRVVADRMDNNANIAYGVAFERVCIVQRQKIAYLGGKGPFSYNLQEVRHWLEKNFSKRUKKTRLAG
Text: as §1, §2, §3

[3] = test system: Normal human articular chondrocytes of knee (NHAC-kn); experiment: Induction of alkaline phosphatase activity in normal human articular chondrocytes of knee by T3; type: cell-based; settings: NHAC-kn cells, 0.05-50 nM T3, 6 days; FIG. 2
Experimental: Normal human articular chondrocytes of knee (NHAC-kn; Clonetics) were plated on gelatin-coated 24-well plates (Iwaki) at 2×10^5 cells/well and cultured in DMEM high glucose medium (Gibco) containing 1 μg/ml insulin, 1 μg/ml transferin, 1 ng/ml selenious acid (these components were contained in ITS; BD Bioscience), 1 mg/ml BSA, 50 μg/ml ascorbic acid phosphate magnesium salt n-hydrate (Wako) and 5 mM β-glycerophosphate in a CO2 incubator under 5% CO2 at 37° C. with addition of 0.05-50 nM T3 (triiodothyronine) (Sigma) if necessary. After 6 days, the culture broth was removed from cells and 200 μl of 10 mM Tris-HCl (pH 7.4) containing 0.1% Triton X-100 was added to each well. Then, cells were shaken at 4° C. for 1 hour on a horizontal shaker to thereby extract proteins from the cell layer. The alkaline phosphatase (AP) activity of the extract was determined from the yield of p-nitrophenol using p-nitrophenylphosphate as a substrate (Sigma). The protein content in the extract was measured with BCA protein assay reagent (Pierce) to thereby calculate the AP activity per a specific amount of protein.

[4] = test system: Normal human articular chondrocytes of knee (NHAC-kn); experiment: Induction of MMP13 gene expression in normal human articular chondrocytes of knee by T3; type: cell-based; settings: NHAC-kn cells, 0.1-10 nM T3, 6 days; FIG. 3
Experimental: Normal human articular chondrocytes of knee (NHAC-kn; Clonetics) were plated on gelatin-coated 96-well plates (Iwaki) at 2×10^5 cells/well and cultured in DMEM high glucose medium (Gibco) containing 1 μg/ml insulin, 1 μg/ml transferin, 1 ng/ml selenious acid (these components were contained in ITS; BD Bioscience) and 1 mg/ml BSA, and supplemented with 5 mM β-glycerophosphate (Sigma), 50 μg/ml ascorbic acid phosphate magnesium salt n-hydrate (Wako) and, if necessary, 0.1-10 nM T3 (triiodothyronine) (Sigma), in a CO2 incubator under 5% CO2 at 37° C. After 6 days, RNA was extracted from cells using RNeasy (Qiagen) according to the attached protocol. Using the total RNA as a template, cDNA was synthesized from random primers with TaqManreverse transcription reagent (Applied Biosystems). Subsequently, 2 μl of the reaction solution containing cDNA was mixed with a 2 μl reaction solution containing 0.34 μM of two primers (SEQ ID NO: 15 and SEQ ID NO: 16) and 1×PCR Master Mix (Applied Biosystems) and subjected to PCR. […]
The PCR was performed with ABI7700 sequence detector (Applied Biosystems). The number of copies of MMP13 cDNA was measured by real-time monitoring the amount of the PCR product. The number of copies of β-actin cDNA was also measured in the same manner using TaqMan β-actin control reagent (Applied Biosystems) and used as internal standard. […]

Sequence of human DIO1 (type 1 thyroid hormone deiodinase) (P49895 whole entry): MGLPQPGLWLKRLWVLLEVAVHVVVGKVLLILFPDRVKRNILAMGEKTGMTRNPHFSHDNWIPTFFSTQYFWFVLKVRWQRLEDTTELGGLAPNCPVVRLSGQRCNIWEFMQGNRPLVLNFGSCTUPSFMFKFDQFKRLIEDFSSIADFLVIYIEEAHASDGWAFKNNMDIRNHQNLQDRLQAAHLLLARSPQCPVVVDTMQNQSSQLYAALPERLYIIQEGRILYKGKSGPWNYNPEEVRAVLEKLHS

inhibition of DIO1 activity (T3 production) [1]: completely inhibited
influence on DIO2 activity of pTB2249 (T3 production) ([2]; 1 mM PTU, 37° C. one hour): influenced little
SMILES: CCCc1cc(=O)[nH]c(=S)[nH]1 [PTU, propylthiouracil]

SMILES: N[C@@H](Cc1cc(I)c(Oc2ccc(O)c(I)c2)c(I)c1)C(=O)O [T3, triiodothyronine]
alkaline phosphatase (AP) activity of cell layer extract per amount of protein [3]: induced in a T3 concentration-dependent manner
mRNA of MMP13 (number of copies of MMP13 cDNA normalized with β-actin) [4]: induced in a T3 concentration-dependent manner

SMILES: N[C@@H](Cc1ccc(Oc2cc(I)c(O)c(I)c2)c(I)c1)C(=O)O [rT3, riverse triiodothyronine]
inhibition of DIO2 activity of pTB2249 (T3 production) ([2]; rT3 5 μM, competition with T4, 37° C. one hour): partially inhibited
